Assay results: US20160195533A1, “METHOD FOR SCREENING EMT INHIBITOR” (Medicinal Bioconvergence Research Center, priority 2015, published 2016)

Assays:
[1] = system: A549 cells; experiment: Cell migration assay (Transwell) after EPRS knock-down; assay type: cell-based; conditions: si-EPRS vs si-control, groups treated with and without TGF-β1 (10 ng/ml, 12 hours)
Method: Cell migration assays with A549 cells were performed in Transwell chambers ([…] pore, Costar). Fibronectin (10 μg/ml, BD Biosciences) was coated on the membrane and 700 μl serum-free RPMI was placed in the bottom chamber. After A549 cells were trypsinized and centrifuged at 1,000 rpm for 5 minutes, serum-free RPMI was added to the cells for suspension. Then, 1×10^5 cells were dropped into 24-well Transwell chambers and incubated for 12 h at 37° C. in a CO2 incubator. After washing the membrane twice with PBS, 70% methyl alcohol in PBS was used for cell fixation. PBS washing was performed three times afterwards and hematoxylin (Sigma) was used for cell staining After washing the membrane with distilled water several times, non-migrant cells from the top were removed by using cotton swab. Then, the membranes were mounted with Gel Mount (Biomeda). For counting migrant cells, three randomly picked places were magnified with microscopes in high-power fields (×10, and ×20). All samples were performed in triplicate.
Here, the TGF-β1 treatment groups were treated at a concentration of 10 ng/ml for 12 hours.

[2] = system: A549 cells; experiment: Cell invasion assay (Matrigel invasion chamber) after EPRS knock-down; assay type: cell-based; conditions: si-EPRS vs si-control, groups treated with and without TGF-β1 (10 ng/ml, 12 hours)
Method: Cell invasion assay using A549 cells were conducted in the Matrigel invasion chamber manufactured by BD Co. According to the manufacturer's protocol, the matrigel was rehydrated for two hours and 750 μl of the serum-free RPMI was located in a lower chamber. The A549 cells were trypsinized, and then centrifuged at 1,000 rpm for 5 minutes. The serum-free RPMI was added to the cells to prepare a suspension. Then, 1×10^5 cells were put in the upper chamber, and then incubated in a CO2 incubator at 37° C. for 12 hours. The membrane was washed two times with PBS, and the cells were fixed using PBS containing 70% methyl alcohol. Then, the membrane was washed three times with PBS, and then the cells were stained with hematoxylin (Sigma). The membrane was washed several times with distilled water, and then immobilized cells above were removed using cotton swabs. Then, the membrane was mounted on the Gel Mount (Biomeda). For counting moving cells, three randomly selected regions were magnified through the microscope. All samples were repeatedly tested three times.
Here, the groups treated with TGF-β1 were prepared by treatment at a concentration of 10 ng/ml for 12 hours.

[3] = system: EPRS (A549 cells); experiment: Immunoblotting of Snail1 and EMT-related markers after EPRS knock-down using siRNA; assay type: cell-based, human; conditions: si-EPRS vs si-control, with or without 10 ng/ml TGF-β1 for 1 hour or 48 hours, cytoplasm and nucleus
Method: Human EPRS gene specific siRNA (si-EPRS) including a sense strand of SEQ ID NO: 23 and an antisense strand of SEQ ID NO: 24, and non-silencing control siRNA (si-control, Catalog Number: 4390843) were purchased from Invitrogen Silencer Select siRNAs products.
Cells were lysed with lysis buffer (20 mM Tris-HCl (pH 8.0) buffer containing 150 mM NaCl, 1% Triton X-100, 1 mM EDTA, 10% glycerol, and protease inhibitor) and collected in a 1.5 ml tube and incubated in 4° C. with gentle agitation for 15 minutes. Then, centrifuged at 15,000 rpm for 20 minutes in 4° C. and supernatants were collected and quantified by using Bradford reagent. After 5×SDS sample buffer was added, each sample were boiled in 100° C. for 5 minutes. Protein samples were separated by SDS-PAGE, transferred to nitrocellulose membrane, and immunoblotted with specific antibodies. The blots were then reacted with horseradish peroxidase-coupled anti-mouse and anti-rabbit (Pierce) IgG secondary antibody. Signals were developed with ECL-PLUS detection reagent (GE healthcare lifesciences).
The antibodies specific to the respective marker proteins, used in the present experiment, are as follows: StrepMAB classic-HRP (IBA), Monoclonal anti-FLAG M2-HRP (Sigma), anti-Snail1 (Cell signaling), anti-Slug (Cell signaling), anti-L13a (Cell signaling), anti-p-Smad2 (Cell signaling), anti-p-Smad3 (Cell signaling), anti-E-cadherin (Cell signaling), anti-N-cadherin (Cell signaling), anti-HDAC1 (Bio vision), anti-β-actin (SCBT), anti-Tubulin (Sigma), anti-HSP90 alpha/β (SCBT), anti-p84 (SCBT), and anti-HA (SCBT). The anti-EPRS antibody was prepared through a conventional procedure by which the EPRS protein represented by SEQ ID NO: 1 was injected into a New Zealand white rabbit to cause an immune response, thereby obtaining an antibody.
It was verified how the reduced EPRS affects Snail1 and EMT progress, through EPRS knock-down experiment using siRNA. For each experimental group, […] cells were treated with si-control or si-EPRS, and treated with or without 10 ng/ml of TGF-β1 for 1 hour or 48 hours. […]

[4] = system: binding between EPRS and Snail1; experiment: Endogenous immunoprecipitation of EPRS with Snail1 immunoblot in TGF-β1-treated cells; assay type: cell-based; conditions: A549 cells, TGF-β1 0, 1, 10, 20 ng/ml for 48 hours, cytoplasm and nucleus fractions
Method: For the detection of endogenous EPRS interaction with Snail1 in nucleus and cytosol, the protein extracts were incubated with protein A agarose (Life technologies) for 30 minutes on ice, and then centrifuged to remove nonspecific IgG binding proteins. The pre-cleared supernatants were mixed with anti-EPRS antibody, incubated the mixture for 2 h at 4° C. with gentle agitation, added protein A agarose for 2 h, and centrifuged. After washing the precipitates with the cold lysis buffer 3-5 times, the precipitates were dissolved in the 2×SDS sample buffer and separated by SDS-PAGE.
The interaction between EPRS and Snail1 were verified at the endogenous level of cytoplasm and nucleus. A549 cells were treated with TGF-β1 of different concentrations (0, 1, 10, 20 ng/ml) for 48 hours, fractionated into the cytoplasm and the nucleus, and then subjected endo-IP using protein A-agarose beads (Invitrogen) and EPRS antibody.

Substance: si-EPRS: Human EPRS gene specific siRNA including a sense strand of SEQ ID NO: 23 and an antisense strand of SEQ ID NO: 24 (sense CGAUGUCAGCAUUUCCGUUTT; antisense AACGGAAAUGCUGACAUCGTC; chemistry not given here)
- cell migration [1]: reduced
- cell invasion [2]: reduced
- E-cadherin protein level (immunoblot) [3]: increased
- Snail1 protein level (immunoblot) [3]: reduced
- p-SMAD3 protein level (immunoblot) [3]: reduced

Substance: TGF-β1: Growth factor purchased from R&D systems, used to induce EMT
- binding between EPRS and Snail1 (endo-IP, Snail1 immunoblot) [4]: the higher the concentration of TGF-β1, the stronger the binding between EPRS and Snail1
